{"source": "paper PMC10629583", "about": "“Specific inhibition of an anticancer target, polo-like kinase 1, by allosterically dismantling its mechanism of substrate recognition” (Proceedings of the National Academy of Sciences of the …, 2023)", "key": {"[1]": {"biological_target": "T1, PBD1 F559R mutant (Homo sapiens, UniProt P53350, F559R)", "T1 construct": "constructs expressing PBD1 (residues 345–603) WT (pKM7650); His; TEV site (N); made in house; host or cells: bacteria (E. coli)", "T1 sequence (P53350 345-603 F559R)": "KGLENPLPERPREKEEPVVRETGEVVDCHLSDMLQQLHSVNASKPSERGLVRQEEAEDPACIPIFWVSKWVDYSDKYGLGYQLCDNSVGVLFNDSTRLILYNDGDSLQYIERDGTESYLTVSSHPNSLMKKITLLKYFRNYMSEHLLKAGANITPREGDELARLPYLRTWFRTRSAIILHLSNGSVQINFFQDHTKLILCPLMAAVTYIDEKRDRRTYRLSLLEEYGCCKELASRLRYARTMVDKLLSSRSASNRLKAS", "test": "FP-based binding/inhibition assay, PBD1 F559R", "settings": "PBD1 F559R, 2 µM protein", "method": "(§1) FP assays were carried out essentially as described previously ([35], [36]). FITC-conjugated ligands (15 nM) were mixed with PBDs at their EC85 concentrations. All the samples were analyzed approximately 30 min after reaction in a 384-well format using the SpectraMax Paradigm multimode microplate detection platform (Molecular Devices). Data were analyzed after carrying out at least three independent experiments using GraphPad Prism software version 8.\n(§2) Fig. S4. Generation of F559 mutants for in vitro and cell-based assays in Fig. 4. (A) SDS-PAGE showing the proteins used for the FP assays in Fig. 4 A and B. CBB, a Coomassie Brilliant Blue– stained gel. (B) Summary of Kd and EC85 values for PBD1 WT and mutants. The Kd values for PBD1 WT and mutants were determined after extrapolating them from the binding curves as the concentration at which 50% of the FITC-Ahx-DPPLHSpTAI-NH2 are PBD1-bound. The EC85 values indicate the effective concentration of 85% of the maximal concentration calculated for each protein. The FP values were obtained 30 minutes after incubation. For the F559K and F559R mutants, we were not able to determine the EC85 values and therefore used 2 µM of these proteins for the assays in Fig. 4B. N.D., not determined. […]"}, "[2]": {"biological_target": "T2, human His-Plk1 (Homo sapiens, UniProt P53350)", "T2 construct": "His (N); purchased Sino Biological; host or cells: Sf9", "test": "In vitro Plk1 kinase assay (casein, 32P)", "type": "biochemical", "settings": "casein substrate", "method": "Kinase reactions were carried out in two steps. First, Sf9-purified 0.2 µg of human His-Plk1 (Sino Biological) was preincubated in a kinase cocktail [50 mM Tris-Cl (pH 7.5), 10 mM MgCl2, 2 mM dithiothreitol, 2 mM EGTA, and 27 mM p-nitrophenylphosphate] in the presence of either Allopole-A or p-13mer PBIP peptide for 20 min at 25 °C. The samples were then added with 1 µg of dephosphorylated casein (Sigma) and 1.25 µM of ATP (1.25 µCi of [γ^32P] ATP, 1Ci = 37 GBq) and reacted for additional 30 min at 30 °C. The reactions were terminated by the addition of 5× Laemmli SDS sample buffer, separated by 10% SDS-PAGE, and analyzed by autoradiography. To quantify the γ^32P signals, appropriate bands were excised from dried SDS-PAGE gels and analyzed by a liquid scintillation counter (Beckman model LS 6500)."}, "[3]": {"biological_target": "T3, full-length Plk1 (Homo sapiens, UniProt P53350)", "T3 construct": "expressed in transfected cells; host or cells: HEK293A cells infected with adenovirus; total lysate", "test": "ELISA-based PBD1-binding inhibition assay", "settings": "total lysates from HEK293A cells expressing full-length Plk1; biotinylated PBIP1 p-T78 peptide; read-out: Anti-Plk1 (full length) ELISA (IC50) Mean ± SEM"}, "[4]": {"biological_target": "T4, PBD1 F559D mutant (Homo sapiens, UniProt P53350, F559D)", "T4 construct": "constructs expressing PBD1 (residues 345–603) WT (pKM7650), F559D (pKM7878); His; TEV site (N); made in house; host or cells: bacteria (E. coli)", "T4 sequence (P53350 345-603 F559D)": "as the sequence (P53350 345-603 F559R) above, with R215D counted along it", "test": "FP-based binding/inhibition assay, PBD1 F559D", "settings": "PBD1 F559D at EC85", "method": "as §1, §2"}}, "data": [{"smiles": "O=c1c2sc(Cl)cc2n2c(=S)[nH]nc2n1CC1CC1", "note": "[Allopole-A]", "values": [{"measurement": "Inhibition of FITC-phosphopeptide binding (in words)", "setting": "[1]", "result": "failed to inhibit"}, {"measurement": "Effect on His-Plk1 kinase activity in vitro (in words)", "setting": "[2]", "result": "significantly inhibited Plk1 activity"}, {"measurement": "IC50", "setting": "[3]", "result": 1.4, "unit": "µM"}, {"measurement": "Inhibition of FITC-phosphopeptide binding (in words)", "setting": "[4]", "result": "failed to inhibit"}]}]}
